According to paper PMC6150220, “An Optimized and Sensitive Pharmacokinetic Quantitative Method of Investigating Gastrodin, Parishin, and Parishin B, C and E in Beagle Dog Plasma using LC-MS/MS after Intragastric Administration of Tall Gastrodia Capsules” (Molecules : A Journal of Synthetic Chemistry and Natural …, 2017):

Test: in vivo
Method: After full validation, the LC-ESI-MS/MS method was used to analyze large batches of beagle dog plasma. […] The corresponding pharmacokinetic parameters were generated by fitting plasma concentration profiles to a non-compartmental model. These are summarized in Table 3, expressed as the mean ± SD (n = 5).
Quantitative analysis was conducted on a 1290 UPLC-photodiode array 6460 triple quadrupole mass spectrometry system (LC-MS/MS, Agilent Technologies, Palo Alto, CA, USA). Analysis was carried out on. Separation of analytes was performed on a reversed phase Agilent Zorbax XDB-C18 HPLC column (2.1 mm × 50 mm, particle size 3.5 μm) with the column oven set to 30 °C. The elution gradient was carried out with a binary solvent system consisting of an aqueous solution of 0.4% v/v formic acid in water (A) and acetonitrile (B) at a flow rate of 0.15 mL/min. Optimized separation was obtained according to a linear gradient (0–2 min, 2% B; 2–4 min, 2–12% B; 4–8 min, 12–20% B; 8–14 min, 20–28% B; […], 28–90% B). MS/MS conditions were as follows: negative ion mode, drying gas (N2) flow rate 8.0 L/min, drying gas temperature 300 °C, declustering potential 150 V, nebulizer pressure 45 psi, ESI Vcap 3500 V, sheath gas temperature 300 °C, sheath gas flow 12 L/min, nozzle voltage 500 V. The mass transition of gastrodin (m/z 331.1→123.0, CE: 3 eV), parishin (m/z 995.4→727.0, CE: 42 eV), parishin B (m/z 727.3→423.0, CE: 20 eV), parishin C (m/z 727.3→423.1, CE: 20 eV), parishin E (m/z 459.3→110.9, CE: 19 eV) and bergenin (m/z 327.0→234.0, CE: 4 eV).
Adult male […] beagle dogs (12 kg ± 0.020 kg) were purchased from Beijing Shahe Bio-Technology (Beijing, China; certificate No. SCXK2014-0007). Before drug administration, the dogs were fasted for 12 h with free access to water. They were maintained on a 12 h light-dark cycle (light on from 6:00 to 18:00 h) at ambient temperature (22–24 °C) with 60% relative humidity. The animals were observed twice daily and body weights were recorded once per day to assess their general health. All experimental protocols on animals were carried out according to the Guidelines of the Committee on the Care and Use of Laboratory Animals of China.
Fifteen beagle dogs were randomly divided into three groups to receive an intragastric dose of tall Gastrodia capsules (0.125, 0.25 and 0.5 g/kg). Capsules were ultrasonically dissolved in pure water and suspended at concentrations of 5, 10 and 20 mg/mL for intragastric administration. […] The HPLC quantitative analysis was based on the previous report with some modification. After administration, serial blood samples (about 2.00 mL) were collected from the foreleg vein […] into heparin-containing capillary tubes at 10, 20, 30, 45, 60, 120, 180, 240, 480, 720 and 1440 min. Blood samples were promptly centrifuged at 5000 rpm for 5 min, and the plasma was separated and stored at −20 °C until analysis.
Plasma samples were thawed to 4 °C before processing. An aliquot of 200 μL of the plasma sample was transferred into an Eppendorf tube, and 1000 μL of ice-cold 1% formic acid methanol containing IS (10 μL, 2.0 μg/mL) was added to precipitate the plasma proteins. Samples were then vortexed for 3 min and centrifuged at 12,000 rpm for 10 min. The supernatant was transferred and evaporated to dryness under a gentle stream of nitrogen at 40 °C. The residue was reconstituted in 200 μL of 5.0% methanol–water, and a 10 μL aliquot was injected for analysis.

[1] = male, beagle, dog, in vivo, po, 0.125 g/kg
[2] = male, beagle, dog, in vivo, po, 0.25 g/kg
[3] = male, beagle, dog, in vivo, po, 0.5 g/kg

Row | SMILES | AUC(0-inf) [1] [ng·h/mL] | AUC(0-t) [1] [ng·h/mL] | Cmax [1] [ng/mL] | MRT inf [1] [h] | MRT last [1] [h] | Tmax [1] [h] | half-life [1] [h] | AUC(0-inf) [2] [ng·h/mL] | AUC(0-t) [2] [ng·h/mL] | Cmax [2] [ng/mL] | MRT inf [2] [h] | MRT last [2] [h] | Tmax [2] [h] | half-life [2] [h] | AUC(0-inf) [3] [ng·h/mL] | AUC(0-t) [3] [ng·h/mL] | Cmax [3] [ng/mL] | MRT inf [3] [h] | MRT last [3] [h] | Tmax [3] [h] | also measured
1 | O=C(CC(O)(CC(=O)OCc1ccc(O[C@@H]2O[C@H](CO)[C@@H](O)[C@H](O)[C@H]2O)cc1)C(=O)O)OCc1ccc(O[C@@H]2O[C@H](CO)[C@@H](O)[C@H](O)[C@H]2O)cc1 [Parishin C, parishin C] | 359 ± 99.3 | 349 ± 100 | 107 ± 29.4 | 2.7 ± 0.28 | 2.47 ± 0.28 | 1.35 ± 0.6 | 1.37 ± 0.18 | 578 ± 200 | 567 ± 198 | 144 ± 55.1 | 3.31 ± 0.59 | 3.14 ± 0.54 | 2 ± 0.71 | 1.56 ± 0.41 | 1100 ± 527 | 1090 ± 523 | 243 ± 99.6 | 3.25 ± 0.72 | 3.18 ± 0.69 | 2.4 ± 0.55 | Mean plasma clearance (CL) (male, beagle, dog, in vivo, po): 16 mL/min/kg; CL (plasma clearance) [1]: 12 ± 3.83 mL/min/kg; CL (plasma clearance) [2]: 15.2 ± 3.83 mL/min/kg; CL (plasma clearance) [3]: 21 ± 17.5 mL/min/kg; half-life [3]: 1.29 ± 0.36 h
2 | O=C(CC(O)(CC(=O)OCc1ccc(OC2OC(CO)C(O)C(O)C2O)cc1)C(=O)OCc1ccc(OC2OC(CO)C(O)C(O)C2O)cc1)OCc1ccc(OC2OC(CO)C(O)C(O)C2O)cc1 (centres unmarked) [Parishin, parishin] | 899 ± 299 | 868 ± 314 | 388 ± 116 | 2 ± 0.3 | 1.8 ± 0.42 | 1 ± 0.56 | 1.15 ± 0.18 | 1520 ± 832 | 1500 ± 836 | 462 ± 230 | 2.65 ± 0.44 | 2.49 ± 0.4 | 1.55 ± 0.62 | 1.38 ± 0.34 | 3280 ± 1370 | 3270 ± 1370 | 969 ± 292 | 2.5 ± 0.35 | 2.48 ± 0.36 | 1.45 ± 0.76 | Mean plasma clearance (CL) (male, beagle, dog, in vivo, po): 52.3 mL/min/kg; CL (plasma clearance) [1]: 44.8 ± 16.8 mL/min/kg; CL (plasma clearance) [2]: 59.3 ± 29.2 mL/min/kg; CL (plasma clearance) [3]: 53 ± 27.5 mL/min/kg; half-life [3]: 1.05 ± 0.16 h
3 | O=C(O)CC(O)(CC(=O)OCc1ccc(OC2OC(CO)C(O)C(O)C2O)cc1)C(=O)OCc1ccc(OC2OC(CO)C(O)C(O)C2O)cc1 (centres unmarked) [Parishin B, parishin B] | 1570 ± 533 | 1550 ± 530 | 526 ± 143 | 2.32 ± 0.25 | 2.25 ± 0.26 | 1.25 ± 0.69 | 1.08 ± 0.11 | 2720 ± 1140 | 2700 ± 1130 | 746 ± 320 | 2.84 ± 0.44 | 2.78 ± 0.42 | 1.8 ± 0.45 | 1.18 ± 0.29 | 4720 ± 2330 | 4700 ± 2330 | 1220 ± 562 | 2.8 ± 0.42 | 2.76 ± 0.44 | 2 ± 0.71 | Mean plasma clearance (CL) (male, beagle, dog, in vivo, po): 14.5 mL/min/kg; CL (plasma clearance) [1]: 12 ± 6.5 mL/min/kg; CL (plasma clearance) [2]: 13 ± 3.83 mL/min/kg; CL (plasma clearance) [3]: 18.5 ± 14 mL/min/kg; half-life [3]: 1.17 ± 0.22 h
4 | OCc1ccc(O[C@@H]2O[C@H](CO)[C@@H](O)[C@H](O)[C@H]2O)cc1 [Gastrodin, gastrodin] | 5080 ± 2110 | 4890 ± 2060 | 1200 ± 120 | 3.33 ± 1.09 | 2.98 ± 1.01 | 1.1 ± 0.52 | 1.86 ± 0.67 | 9170 ± 1790 | 8830 ± 1860 | 2050 ± 495 | 3.8 ± 0.28 | 3.46 ± 0.29 | 1.75 ± 0.9 | 1.9 ± 0.26 | 17600 | 17000 | 3760 ± 778 | 3.93 ± 0.99 | 3.54 ± 0.69 | 2 ± 0.71 | Time after administration at which detected in plasma (beagle dog plasma, intragastric capsules, all three dosage levels): 10 min; CL (plasma clearance) (beagle dog plasma, intragastric tall Gastrodia capsules, high dose 0.5 g/kg, mean ± SD, n = 5): 3.5 ± 0.83 mL/min/kg; CL (plasma clearance) (beagle dog plasma, intragastric tall Gastrodia capsules, low dose 0.125 g/kg, mean ± SD, n = 5): 3.5 ± 2.17 mL/min/kg; CL (plasma clearance) (beagle dog plasma, intragastric tall Gastrodia capsules, medium dose 0.25 g/kg, mean ± SD, n = 5): 3.33 ± 0.67 mL/min/kg; Mean plasma clearance (CL) (beagle dogs, mean over the three intragastric dose levels of tall Gastrodia capsules): 3.3 mL/min/kg; half-life [3]: 2.09 ± 0.68 h
